Molecular target: Xanthine dehydrogenase/oxidase (Homo sapiens, UniProt P47989)
Test: xanthine oxidase activity: Xanthine oxidase inhibition was determined using a standard fluorescence-based assay for xanthine oxidase activity (McHale A, Grimes H, Coughlan M P: Int J Biochem. 10:317-9, 1979) with minor variations. […] Experiments on test compounds were performed in triplicate in multi-well plates using 10 concentrations of each compound that ranged over a 3-fold dilution.

Xanthine dehydrogenase/oxidase, sequence (P47989 whole entry): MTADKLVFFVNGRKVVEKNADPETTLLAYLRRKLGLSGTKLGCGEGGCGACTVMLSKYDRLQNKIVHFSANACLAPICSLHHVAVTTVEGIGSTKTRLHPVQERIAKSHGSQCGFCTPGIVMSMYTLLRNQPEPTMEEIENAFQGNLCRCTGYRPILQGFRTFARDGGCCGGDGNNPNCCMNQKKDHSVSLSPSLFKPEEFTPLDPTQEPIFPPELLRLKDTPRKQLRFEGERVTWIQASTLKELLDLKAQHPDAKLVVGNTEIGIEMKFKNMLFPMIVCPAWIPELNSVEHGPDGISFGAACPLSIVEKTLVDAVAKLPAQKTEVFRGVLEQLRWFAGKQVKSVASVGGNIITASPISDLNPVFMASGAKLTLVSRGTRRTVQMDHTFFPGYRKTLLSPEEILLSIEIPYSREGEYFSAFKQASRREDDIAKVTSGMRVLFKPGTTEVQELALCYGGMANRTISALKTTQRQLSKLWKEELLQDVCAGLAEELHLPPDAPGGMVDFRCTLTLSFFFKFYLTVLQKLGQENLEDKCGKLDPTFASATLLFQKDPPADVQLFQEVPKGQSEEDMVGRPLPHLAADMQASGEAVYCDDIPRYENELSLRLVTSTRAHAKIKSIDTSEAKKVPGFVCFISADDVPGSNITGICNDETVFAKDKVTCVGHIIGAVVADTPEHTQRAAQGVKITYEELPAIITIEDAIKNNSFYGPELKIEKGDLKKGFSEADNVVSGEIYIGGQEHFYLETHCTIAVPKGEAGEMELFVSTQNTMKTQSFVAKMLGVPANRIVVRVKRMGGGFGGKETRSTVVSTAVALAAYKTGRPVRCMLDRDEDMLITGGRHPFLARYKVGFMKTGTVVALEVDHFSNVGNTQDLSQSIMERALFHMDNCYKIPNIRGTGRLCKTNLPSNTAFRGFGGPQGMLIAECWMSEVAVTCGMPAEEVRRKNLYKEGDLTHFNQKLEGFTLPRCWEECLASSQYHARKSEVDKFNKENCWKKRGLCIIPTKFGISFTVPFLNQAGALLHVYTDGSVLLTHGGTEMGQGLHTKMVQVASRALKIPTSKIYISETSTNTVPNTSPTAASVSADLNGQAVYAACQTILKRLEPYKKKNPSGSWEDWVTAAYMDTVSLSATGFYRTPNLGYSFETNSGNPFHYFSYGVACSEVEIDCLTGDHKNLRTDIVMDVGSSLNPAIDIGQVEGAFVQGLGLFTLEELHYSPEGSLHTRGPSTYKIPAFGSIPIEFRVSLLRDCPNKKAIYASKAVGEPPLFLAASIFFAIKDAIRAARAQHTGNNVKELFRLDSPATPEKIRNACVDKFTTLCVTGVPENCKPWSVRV

**Q.** With `O=C(O)CSc1nnc(Br)n1-c1ccc(C2CC2)c2ccccc12` as the compound, how does the IC50 read?
**A.** > 300 µM
